According to article PMC6664433 (Cancer discovery, 2019):

Experiments:
[1] = system: EGFR-mutant NSCLC patients; details: cited from earlier work; for PFS: osimertinib vs comparator arm gefitinib or erlotinib; for median PFS: patients with an L858R mutation, comparator arm gefitinib or erlotinib
[2] = system: Ba/F3 cell lines stably transfected with EGFR L858R, L858R/T790M or L858R/T790M/C797S; assay: Ba/F3 cell proliferation; type: cell-based, murine; details: single agent, 72 hours
[3] = system: H1975 xenograft mouse model; details: for tumor volume change at day 18: osimertinib 2.5mg/kg, JBJ-04-125-02 100mg/kg, or both
[4] = system: Del_19-containing EGFR mutants; assay: KINOMEscan kinome selectivity profiling; type: binding, human; details: 10µM
[5] = target: TIE2 (Homo sapiens, UniProt Q02763); assay: KINOMEscan kinome selectivity profiling; type: binding; details: 10µM
TIE2, sequence (Q02763 23-1124): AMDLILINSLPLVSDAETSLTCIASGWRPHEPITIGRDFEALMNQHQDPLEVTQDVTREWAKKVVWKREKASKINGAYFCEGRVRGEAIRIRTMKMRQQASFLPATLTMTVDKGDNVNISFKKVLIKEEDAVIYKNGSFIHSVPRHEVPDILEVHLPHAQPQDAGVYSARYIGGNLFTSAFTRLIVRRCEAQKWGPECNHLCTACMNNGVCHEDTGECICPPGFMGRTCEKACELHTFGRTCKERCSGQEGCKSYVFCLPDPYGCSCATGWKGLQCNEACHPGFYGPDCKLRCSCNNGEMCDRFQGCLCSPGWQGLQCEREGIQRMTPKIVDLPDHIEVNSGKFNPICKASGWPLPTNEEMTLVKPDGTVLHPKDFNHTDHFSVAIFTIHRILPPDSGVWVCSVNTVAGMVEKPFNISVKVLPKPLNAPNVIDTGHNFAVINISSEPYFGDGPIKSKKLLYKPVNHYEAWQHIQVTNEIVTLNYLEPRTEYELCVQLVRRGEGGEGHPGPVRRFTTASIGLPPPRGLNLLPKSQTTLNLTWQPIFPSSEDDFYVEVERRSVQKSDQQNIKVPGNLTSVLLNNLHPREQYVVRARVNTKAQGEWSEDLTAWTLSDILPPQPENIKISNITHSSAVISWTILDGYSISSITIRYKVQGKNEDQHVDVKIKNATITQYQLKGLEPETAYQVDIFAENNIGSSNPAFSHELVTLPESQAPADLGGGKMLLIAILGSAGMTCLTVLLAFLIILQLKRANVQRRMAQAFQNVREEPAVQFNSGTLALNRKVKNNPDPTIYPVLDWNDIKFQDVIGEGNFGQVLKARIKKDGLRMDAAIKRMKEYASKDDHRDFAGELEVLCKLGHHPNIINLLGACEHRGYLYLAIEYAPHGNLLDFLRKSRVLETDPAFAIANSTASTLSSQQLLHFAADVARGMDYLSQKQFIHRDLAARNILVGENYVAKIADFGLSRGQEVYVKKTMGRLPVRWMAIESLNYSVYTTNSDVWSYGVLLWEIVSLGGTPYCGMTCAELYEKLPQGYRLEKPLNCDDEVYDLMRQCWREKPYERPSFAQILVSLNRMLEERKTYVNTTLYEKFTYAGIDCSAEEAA

[6] = Pharmacokinetic study; type: in vivo
[7] = system: H1975 xenograft mouse model; assay: Pharmacodynamic study in H1975 xenograft; details: 3 doses; JBJ-04-125-02 100mg/kg, osimertinib 25mg/kg
[8] = system: EGFR L858R/T790M/C797S genetically engineered mice; assay: Pharmacodynamic study in GEM mice; type: in vivo; details: oral gavage once daily, 3 doses
[9] = system: panel of 468 kinases; assay: KINOMEscan kinome selectivity profiling; type: binding, human; details: 10µM, 35% cut-off
[10] = system: EGFR L858R/T790M/C797S genetically engineered mice; assay: Efficacy study in GEM mice; type: in vivo
[11] = system: H1975 cells; assay: Cell viability assay; details: 72 hours
[12] = system: wild-type EGFR Ba/F3 cells; assay: Ba/F3 cell proliferation; type: cell-based, murine; details: 72 hours
[13] = target: TIE1 (Homo sapiens, UniProt P35590); assay: KINOMEscan kinome selectivity profiling; type: binding; details: 10µM
TIE1, sequence (P35590 22-1138): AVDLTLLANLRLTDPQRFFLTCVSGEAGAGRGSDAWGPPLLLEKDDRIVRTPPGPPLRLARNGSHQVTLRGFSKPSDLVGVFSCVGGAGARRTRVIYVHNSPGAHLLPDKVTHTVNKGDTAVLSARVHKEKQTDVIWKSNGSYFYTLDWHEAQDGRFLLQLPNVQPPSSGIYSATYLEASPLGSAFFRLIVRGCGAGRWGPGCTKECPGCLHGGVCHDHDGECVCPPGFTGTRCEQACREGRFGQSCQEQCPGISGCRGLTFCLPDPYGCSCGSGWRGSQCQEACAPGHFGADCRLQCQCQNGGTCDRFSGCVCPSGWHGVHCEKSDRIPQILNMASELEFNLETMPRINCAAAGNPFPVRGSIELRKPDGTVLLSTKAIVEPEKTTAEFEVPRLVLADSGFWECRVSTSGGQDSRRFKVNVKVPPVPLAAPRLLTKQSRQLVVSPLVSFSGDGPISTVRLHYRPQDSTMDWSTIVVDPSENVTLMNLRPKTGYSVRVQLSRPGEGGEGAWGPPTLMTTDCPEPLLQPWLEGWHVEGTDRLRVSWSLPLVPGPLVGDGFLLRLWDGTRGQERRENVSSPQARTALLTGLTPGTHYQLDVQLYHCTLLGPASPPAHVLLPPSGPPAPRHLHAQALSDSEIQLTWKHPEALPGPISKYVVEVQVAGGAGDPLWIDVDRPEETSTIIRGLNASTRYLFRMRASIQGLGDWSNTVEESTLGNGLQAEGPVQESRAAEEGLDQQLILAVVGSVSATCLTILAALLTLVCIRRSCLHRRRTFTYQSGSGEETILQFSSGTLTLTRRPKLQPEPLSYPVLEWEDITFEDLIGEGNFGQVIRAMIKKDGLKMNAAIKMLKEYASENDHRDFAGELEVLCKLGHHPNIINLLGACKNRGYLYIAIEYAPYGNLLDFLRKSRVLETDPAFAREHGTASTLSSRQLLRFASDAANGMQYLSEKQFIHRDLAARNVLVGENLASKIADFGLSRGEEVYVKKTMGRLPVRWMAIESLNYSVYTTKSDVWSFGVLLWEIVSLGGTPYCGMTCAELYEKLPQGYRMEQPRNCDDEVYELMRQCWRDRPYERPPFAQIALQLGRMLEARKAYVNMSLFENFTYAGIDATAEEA

[14] = system: H3255GR cells; assay: IncuCyte long-term confluency assay; type: cell-based, human; details: osimertinib 1μM, JBJ-04-125-02 10μM or both, 2 weeks of treatment
[15] = target: MAP4K5 (Homo sapiens, UniProt Q9Y4K4); assay: KINOMEscan kinome selectivity profiling; type: binding; details: 10µM
MAP4K5, sequence (Q9Y4K4 whole entry): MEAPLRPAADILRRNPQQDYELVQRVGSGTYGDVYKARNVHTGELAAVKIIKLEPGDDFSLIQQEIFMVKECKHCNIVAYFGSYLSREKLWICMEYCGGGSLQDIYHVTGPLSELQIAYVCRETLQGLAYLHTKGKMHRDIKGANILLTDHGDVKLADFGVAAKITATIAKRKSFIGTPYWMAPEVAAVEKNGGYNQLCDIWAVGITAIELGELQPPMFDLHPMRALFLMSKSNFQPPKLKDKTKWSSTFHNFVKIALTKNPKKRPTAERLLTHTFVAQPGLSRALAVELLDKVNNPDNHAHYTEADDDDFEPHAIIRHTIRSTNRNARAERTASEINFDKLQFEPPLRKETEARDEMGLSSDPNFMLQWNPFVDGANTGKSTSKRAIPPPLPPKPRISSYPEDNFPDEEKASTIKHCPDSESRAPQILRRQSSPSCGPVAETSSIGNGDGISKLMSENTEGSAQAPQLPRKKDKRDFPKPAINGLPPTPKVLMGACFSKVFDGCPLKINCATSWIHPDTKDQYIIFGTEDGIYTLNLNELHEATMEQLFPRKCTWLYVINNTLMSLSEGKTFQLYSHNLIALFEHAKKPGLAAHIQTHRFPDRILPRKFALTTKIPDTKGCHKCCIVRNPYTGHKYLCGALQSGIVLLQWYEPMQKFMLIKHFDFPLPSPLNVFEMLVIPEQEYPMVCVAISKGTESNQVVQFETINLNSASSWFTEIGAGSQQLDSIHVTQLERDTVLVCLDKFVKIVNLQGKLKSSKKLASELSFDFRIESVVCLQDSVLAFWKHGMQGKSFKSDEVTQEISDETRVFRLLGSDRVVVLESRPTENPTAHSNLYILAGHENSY

[16] = system: H1975 cells; assay: Western blotting of EGFR, AKT, ERK1/2 phosphorylation; details: 4 hours, compared to osimertinib
[17] = system: H3255GR cells; assay: Cell viability assay; details: 72 hours
[18] = system: Ba/F3 cells containing the L858R/C797S mutation; assay: Ba/F3 cell proliferation; type: cell-based, murine; details: compared to gefitinib
[19] = system: L858R/T790M Ba/F3 cells; assay: ENU mutagenesis resistant colony assay; details: after ENU; 1μM osimertinib, 10μM JBJ-04-125-02, or combination; of 300 colonies
[20] = system: H3255GR cells; assay: IncuCyte Caspase-3/7 apoptosis assay; type: cell-based, human; details: 0.1μM osimertinib, 10μM allosteric inhibitor, or both; 72 hours
[21] = system: parental Ba/F3 cells; assay: Ba/F3 cell proliferation; type: cell-based, murine; details: 72 hours
[22] = system: Ba/F3 cells harboring EGFR Del_19 variants; assay: Ba/F3 cell proliferation; type: cell-based, murine; details: 72 hours
[23] = system: EGFR; assay: Biotinylated EAI045 pull-down assay; type: binding; details: following osimertinib treatment
[24] = system: EGFR-mutant models; details: without cetuximab; cited from earlier work
[25] = target: L858R/T790M EGFR (Homo sapiens, UniProt P00533, L858R/T790M); assay: HTRF-based EGFR biochemical assay; details: read-out: IC50 (biochemical potency); enzyme 20pM, 100µM ATP
L858R/T790M EGFR, sequence (P00533 696-1022 T790M/L858R): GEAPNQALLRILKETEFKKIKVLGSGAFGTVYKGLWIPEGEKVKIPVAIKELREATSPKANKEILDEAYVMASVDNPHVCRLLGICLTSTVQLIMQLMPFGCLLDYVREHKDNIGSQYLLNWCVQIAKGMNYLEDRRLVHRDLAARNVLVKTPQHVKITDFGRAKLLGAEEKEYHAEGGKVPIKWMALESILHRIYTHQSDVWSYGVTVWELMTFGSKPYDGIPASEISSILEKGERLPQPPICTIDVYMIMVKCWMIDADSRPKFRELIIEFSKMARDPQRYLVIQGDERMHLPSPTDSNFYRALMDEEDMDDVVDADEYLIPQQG

[26] = system: patients with advanced EGFR mutant NSCLC; details: initial therapy; cited from earlier work
[27] = system: patients with EGFR T790M-mediated drug resistance; details: cited from earlier work

C#Cc1cccc(Nc2ncnc3cc(OCCOC)c(OCCOC)cc23)c1 [erlotinib]
PFS [1]: 10.2 months
median PFS [1]: 9.5 months

O=C(Nc1nccs1)C(c1cc(F)ccc1O)N1Cc2ccc(-c3ccc(N4CCNCC4)cc3)cc2C1=O (stereo not drawn) [JBJ-04-125-02]
inhibition of cell proliferation [2]: could inhibit cell proliferation as a single agent
tumor volume change at day 18 [3]: minimal reduction in tumor volume
tumor growth ([3]; osimertinib 25mg/kg, JBJ-04-125-02 100mg/kg, 35 days): tumor stasis and occasional shrinkage in some mice
binding affinity [4]: lacks binding affinity
% control [5]: 33 % control
area under the curve (AUClast) ([6]; 3 mg/kg intravenous (IV) dose): 728577 ng·min/mL
half-life ([6]; 3 mg/kg intravenous (IV) dose): 3 h
average maximal plasma concentration ([6]; 20mg/kg oral dose): 1.1 µM
oral bioavailability ([6]; 20mg/kg oral dose): 3%
EGFR, AKT and ERK1/2 phosphorylation in tumors [7]: reduction in EGFR phosphorylation but only subtle changes in AKT and ERK1/2 phosphorylation
phosphorylation of EGFR, AKT and ERK1/2 in tumors ([8]; 50mg/kg and 100mg/kg): effectively inhibited phosphorylation of EGFR, AKT and ERK1/2
S-Score (35) [9]: 0.02
weight loss or signs of toxicity ([10]; 50mg/kg long-term treatment): not associated with weight loss or overt signs of toxicity
change in tumor volume ([10]; 50mg/kg, within 4 weeks, sustained for 15 weeks): marked tumor regressions
concentration inhibiting cell proliferation [11]: low nanomolar concentrations
inhibition of growth [12]: did not inhibit the growth
% control [13]: 29 % control
confluency at 2 weeks [14]: reached full confluency
% control [15]: 9.5 % control
EGFR and ERK1/2 phosphorylation [16]: downregulate EGFR and ERK1/2 phosphorylation more potently than osimertinib
sensitivity of cell proliferation [17]: resistant
inhibition of cell proliferation [18]: not as potent as gefitinib in inhibiting cell proliferation
resistant colonies [19]: 72%
apoptosis (Caspase-3/7 activity) [20]: no more effective than DMSO
inhibition of growth [21]: did not inhibit the growth
sensitivity of cell proliferation [22]: resistant

O=C(Nc1nccs1)C(c1cc(F)ccc1O)N1Cc2ccccc2C1=O (stereo not drawn) [EAI045]
co-binding with osimertinib [23]: did indeed co-bind with osimertinib and increase EGFR precipitation
single agent efficacy [24]: not effective as a single agent

O=C(Nc1nccs1)C(c1ccccc1)N1Cc2ccc(-c3ccc4[nH]ccc4c3)cc2C1=O (stereo not drawn) [JBJ-02-112-05]
phosphorylation of EGFR and downstream signaling in tumors ([8]; 100mg/kg): also inhibited phosphorylation of EGFR and downstream signaling pathways although not as robustly as JBJ-04-125-02
change in tumor volume ([10]; 100mg/kg): ineffective
IC50 [25]: 15 nM

C=CC(=O)Nc1cc(Nc2nccc(-c3cn(C)c4ccccc34)n2)c(OC)cc1N(C)CCN(C)C [osimertinib, reference compound]
tumor volume change at day 18 [3]: minimal reduction in tumor volume
tumor regression ([3]; osimertinib 25mg/kg alone or with JBJ-04-125-02 100mg/kg, 28 days): ~100%
EGFR, AKT and ERK1/2 phosphorylation in tumors [7]: complete inhibition of EGFR phosphorylation
PFS [26]: 19.3 months
RR [26]: 77%
confluency at 2 weeks [14]: 24%
progression free survivals (PFS) [27]: 9.9–12.3 months
response rate (RR) [27]: 62–71%
sensitivity of cell proliferation [17]: sensitive
apoptosis (Caspase-3/7 activity) [20]: time-dependent increase in apoptosis
PFS [1]: 18.9 months
median PFS [1]: 14.4 months
